# Test results taken from PubChem BioAssay (NCI).
#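 Cells were grown in 96-well plates and exposed to each compound for 48 hours at five concentrations; endpoints were interpolated linearly between bracketing concentrations, or set to the highest concentration if not reached. The concentration for full growth arrest is given as TGI.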
# Key:
# Test in all cases: inhibition of tumour cell growth, NCI panel, 48 h
# [1] = test system: A549 NSCLC
# [2] = test system: ACHN renal
# [3] = test system: CAKI-1 renal
# [4] = test system: CCRF-CEM leukemia
# [5] = test system: COLO 205 colon
# [6] = test system: DLD-1 colon
# [7] = test system: DMS 114 small cell lung
# [8] = test system: EKVX NSCLC
# [9] = test system: HCT-116 colon
# [10] = test system: HCT-15 colon
# [11] = test system: HL-60(TB) leukemia
# [12] = test system: HOP-62 NSCLC
# [13] = test system: HOP-92 NSCLC
# [14] = test system: HT29 colon
# [15] = test system: IGROV1 ovarian
# [16] = test system: K-562 leukemia
# [17] = test system: KM12 colon
# [18] = test system: LOX IMVI melanoma
# [19] = test system: LXFL 529 NSCLC
# [20] = test system: M14 melanoma
# [21] = test system: M19-MEL melanoma
# [22] = test system: MALME-3M melanoma
# [23] = test system: MOLT-4 leukemia
# [24] = test system: NCI-H226 lung
# [25] = test system: NCI-H23 lung
# [26] = test system: NCI-H460 lung
# [27] = test system: NCI-H522 lung
# [28] = test system: OVCAR-3 ovarian
# [29] = test system: OVCAR-4 ovarian
# [30] = test system: OVCAR-5 ovarian
# [31] = test system: OVCAR-8 ovarian
# [32] = test system: RPMI-8226 leukemia
# [33] = test system: SF-268 CNS
# [34] = test system: SF-295 CNS
# [35] = test system: SF-539 CNS
# [36] = test system: SK-MEL-2 melanoma
# [37] = test system: SK-MEL-5 melanoma
# [38] = test system: SK-OV-3 ovarian
# [39] = test system: SN12C renal
# [40] = test system: SNB-19 CNS
# [41] = test system: SNB-75 CNS
# [42] = test system: SNB-78 CNS
# [43] = test system: SR leukemia
# [44] = test system: SW-620 colon
# [45] = test system: U251 CNS
# [46] = test system: UACC-62 melanoma
# [47] = test system: XF 498 CNS
# [48] = test system: 786-0 renal
# [49] = test system: A498 renal
# [50] = test system: DMS 273 small cell lung
# [51] = test system: HCC-2998 colon
# [52] = test system: HOP-18 NSCLC
# [53] = test system: KM20L2 colon
# [54] = test system: RXF 393 renal
# [55] = test system: SK-MEL-28 melanoma
# [56] = test system: TK-10 renal
# [57] = test system: UACC-257 melanoma
# [58] = test system: UO-31 renal
smiles,measurement,setting,value
CCOC(=O)NC(=O)c1cn(CCNCCO)c(=O)[nH]c1=O,TGI,[1],> 100 µM
same,TGI,[2],> 100 µM
same,TGI,[3],> 100 µM
same,TGI,[4],> 100 µM
same,TGI,[5],> 100 µM
same,TGI,[6],> 100 µM
same,TGI,[7],> 100 µM
same,TGI,[8],> 100 µM
same,TGI,[9],> 100 µM
same,TGI,[10],> 100 µM
same,TGI,[11],> 100 µM
same,TGI,[12],> 100 µM
same,TGI,[13],> 100 µM
same,TGI,[14],> 100 µM
same,TGI,[15],> 100 µM
same,TGI,[16],> 100 µM
same,TGI,[17],> 100 µM
same,TGI,[18],> 100 µM
same,TGI,[19],> 100 µM
same,TGI,[20],> 100 µM
same,TGI,[21],> 100 µM
same,TGI,[22],> 100 µM
same,TGI,[23],> 100 µM
same,TGI,[24],> 100 µM
same,TGI,[25],> 100 µM
same,TGI,[26],> 100 µM
same,TGI,[27],> 100 µM
same,TGI,[28],> 100 µM
same,TGI,[29],> 100 µM
same,TGI,[30],> 100 µM
same,TGI,[31],> 100 µM
same,TGI,[32],> 100 µM
same,TGI,[33],> 100 µM
same,TGI,[34],> 100 µM
same,TGI,[35],> 100 µM
same,TGI,[36],> 100 µM
same,TGI,[37],> 100 µM
same,TGI,[38],> 100 µM
same,TGI,[39],> 100 µM
same,TGI,[40],> 100 µM
same,TGI,[41],> 100 µM
same,TGI,[42],> 100 µM
same,TGI,[43],> 100 µM
same,TGI,[44],> 100 µM
same,TGI,[45],> 100 µM
same,TGI,[46],> 100 µM
same,TGI,[47],> 100 µM
CC1OC(OC2C(OC(=O)[C@]34CCC(C)(C)CC3C3=CCC5[C@@]6(C)C[C@H](O)[C@H](OC7OC(CO)C(O)C(O)C7N)[C@@](C)(C(=O)O)C6CC[C@@]5(C)C3(C)CC4)OCC(O)C2O)C(O)C(O)C1OC1OCC(O)C(O)C1O (stereo partly specified),TGI,[48],> 100 µM
same,TGI,[49],> 100 µM
same,TGI,[1],> 100 µM
same,TGI,[2],> 100 µM
same,TGI,[3],> 100 µM
same,TGI,[4],> 100 µM
same,TGI,[5],> 100 µM
same,TGI,[6],> 100 µM
same,TGI,[7],> 100 µM
same,TGI,[50],> 100 µM
same,TGI,[8],> 100 µM
same,TGI,[51],> 100 µM
same,TGI,[10],> 100 µM
same,TGI,[11],> 100 µM
same,TGI,[52],> 100 µM
same,TGI,[12],> 100 µM
same,TGI,[13],> 100 µM
same,TGI,[14],> 100 µM
same,TGI,[15],> 100 µM
same,TGI,[16],> 100 µM
same,TGI,[17],> 100 µM
same,TGI,[53],> 100 µM
same,TGI,[18],> 100 µM
same,TGI,[21],> 100 µM
same,TGI,[22],> 100 µM
same,TGI,[23],> 100 µM
same,TGI,[24],> 100 µM
same,TGI,[25],> 100 µM
same,TGI,[26],> 100 µM
same,TGI,[27],> 100 µM
same,TGI,[28],> 100 µM
same,TGI,[30],> 100 µM
same,TGI,[31],> 100 µM
same,TGI,[32],> 100 µM
same,TGI,[54],> 100 µM
same,TGI,[33],> 100 µM
same,TGI,[34],> 100 µM
same,TGI,[35],> 100 µM
same,TGI,[36],> 100 µM
same,TGI,[55],> 100 µM
same,TGI,[37],> 100 µM
same,TGI,[38],> 100 µM
same,TGI,[39],> 100 µM
same,TGI,[40],> 100 µM
same,TGI,[41],> 100 µM
same,TGI,[42],> 100 µM
same,TGI,[44],> 100 µM
same,TGI,[56],> 100 µM
same,TGI,[45],> 100 µM
same,TGI,[57],> 100 µM
same,TGI,[46],> 100 µM
same,TGI,[58],> 100 µM
C/C(O)=C(\N=O)C(=O)Nc1ccc(Cl)cc1Cl,TGI,[48],> 100 µM
same,TGI,[49],> 100 µM
same,TGI,[1],> 100 µM
same,TGI,[2],> 100 µM
same,TGI,[3],> 100 µM
same,TGI,[4],> 100 µM
same,TGI,[5],> 100 µM
same,TGI,[6],> 100 µM
same,TGI,[7],> 100 µM
same,TGI,[50],> 100 µM
same,TGI,[8],> 100 µM
same,TGI,[51],> 100 µM
same,TGI,[9],> 100 µM
same,TGI,[10],> 100 µM
same,TGI,[11],> 100 µM
same,TGI,[52],> 100 µM
same,TGI,[12],> 100 µM
same,TGI,[13],> 100 µM
same,TGI,[14],> 100 µM
same,TGI,[15],> 100 µM
same,TGI,[16],> 100 µM
same,TGI,[17],> 100 µM
same,TGI,[53],> 100 µM
same,TGI,[18],> 100 µM
same,TGI,[19],> 100 µM
same,TGI,[20],> 100 µM
same,TGI,[21],> 100 µM
same,TGI,[22],> 100 µM
same,TGI,[23],> 100 µM
same,TGI,[24],> 100 µM
same,TGI,[25],> 100 µM
same,TGI,[26],> 100 µM
same,TGI,[27],> 100 µM
same,TGI,[28],> 100 µM
same,TGI,[29],> 100 µM
same,TGI,[30],> 100 µM
same,TGI,[31],> 100 µM
same,TGI,[32],> 100 µM
same,TGI,[54],> 100 µM
same,TGI,[33],> 100 µM
same,TGI,[34],> 100 µM
same,TGI,[35],> 100 µM
same,TGI,[36],> 100 µM
same,TGI,[55],> 100 µM
same,TGI,[37],> 100 µM
same,TGI,[38],> 100 µM
same,TGI,[39],> 100 µM
same,TGI,[40],> 100 µM
same,TGI,[41],> 100 µM
same,TGI,[42],> 100 µM
same,TGI,[44],> 100 µM
same,TGI,[56],> 100 µM
same,TGI,[45],> 100 µM
same,TGI,[57],> 100 µM
same,TGI,[46],> 100 µM
same,TGI,[58],> 100 µM
CCc1ccccc1NC(=O)C1=C(C)NC(C)=C(C(=O)Nc2ccccc2CC)C1c1ccc2c(c1)OCO2,TGI,[48],> 100 µM
same,TGI,[49],81.5 µM
same,TGI,[1],> 100 µM
same,TGI,[2],90.7 µM
same,TGI,[3],88.5 µM
same,TGI,[4],84.4 µM
same,TGI,[5],> 100 µM
same,TGI,[6],> 100 µM
same,TGI,[7],> 100 µM
same,TGI,[8],> 100 µM
same,TGI,[51],41 µM
same,TGI,[11],47.8 µM
same,TGI,[12],59.8 µM
same,TGI,[13],60.1 µM
same,TGI,[14],> 100 µM
same,TGI,[15],> 100 µM
same,TGI,[16],> 100 µM
same,TGI,[17],50.6 µM
same,TGI,[18],88.7 µM
same,TGI,[19],98.4 µM
same,TGI,[20],> 100 µM
same,TGI,[21],> 100 µM
same,TGI,[22],99 µM
same,TGI,[23],> 100 µM
same,TGI,[24],81.4 µM
same,TGI,[25],> 100 µM
same,TGI,[26],> 100 µM
same,TGI,[27],> 100 µM
same,TGI,[28],84 µM
same,TGI,[29],92 µM
same,TGI,[30],82.9 µM
same,TGI,[31],> 100 µM
same,TGI,[32],49.5 µM
same,TGI,[54],94.1 µM
same,TGI,[33],> 100 µM
same,TGI,[34],> 100 µM
same,TGI,[35],45.8 µM
same,TGI,[36],53.1 µM
same,TGI,[55],> 100 µM
same,TGI,[37],> 100 µM
same,TGI,[38],> 100 µM
same,TGI,[39],> 100 µM
same,TGI,[40],> 100 µM
same,TGI,[41],89.3 µM
same,TGI,[42],> 100 µM
same,TGI,[44],> 100 µM
same,TGI,[56],> 100 µM
same,TGI,[45],97.1 µM
same,TGI,[57],> 100 µM
same,TGI,[58],70.5 µM
same,TGI,[47],70.4 µM
